According to publication doi:10.1101/2021.04.29.441652v1 (biorxiv, 2021):

How the values were obtained:
[1] = molecular target: T1, human σ2 receptor (TMEM97) (Homo sapiens, UniProt Q5BJF2); assay: biochemical; type: Expi293 membranes
[2] = molecular target: T1, human σ2 receptor (TMEM97); assay: biochemical; type: Expi293 membranes; conditions: read-out: % of control remaining

T1 sequence (Q5BJF2 whole entry): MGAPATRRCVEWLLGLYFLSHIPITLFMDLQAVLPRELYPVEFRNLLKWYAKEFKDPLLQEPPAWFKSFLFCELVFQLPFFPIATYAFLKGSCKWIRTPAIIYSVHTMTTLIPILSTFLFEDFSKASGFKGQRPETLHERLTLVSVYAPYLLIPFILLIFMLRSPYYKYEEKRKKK

Row | Structure (SMILES) | Ki [1] | remaining activity at 1 µM [2]
1 | CC(C)(NCc1ccc2c(c1)OCCO2)[C@H](O)c1ccccc1 [ZINC000895657866] | 21.4 nM | 3%
2 | CC(C)(C)[C@@H]1CCN(C[C@@H](O)CC2(O)CCCCC2)C1 [ZINC000878406056] | 7.66 nM | 11.8%
3 | O=C(CC1CCCC1)NC1CCN(C[C@H](O)C2CCCCC2)CC1 [ZINC000191344346] | 11.7 nM | 8.7%
4 | N/C(=N\Cc1ccc(F)cc1Br)NCC1CCC1 [ZINC000170908795] | 6.7 nM | 0.9%
5 | C[C@@H](c1ccccc1)[C@@H](O)CN1CCC(c2c[nH]c3ncccc23)CC1 [ZINC000450573233] | 4.3 nM | 3.6%
6 | CN(C[C@]1(O)CCN(Cc2ccccc2)C1)C(=O)c1ccc(F)c2ccccc12 [ZINC000480785335] | 12.9 nM | 9.8%
7 | O[C@@]1(CNCc2cccc3c2OCC3)CCc2ccccc21 [ZINC000921927365] | 67.3 nM | 12.5%
8 | CC1CCC(O)(CN2CC(Cc3ccc(F)c(F)c3)C2)CC1 (stereo not drawn) [ZINC000548355486] | 2.4 nM | 0.4%
9 | C[C@H](C(=O)NC[C@]1(O)CCN(CCC2CCCC2)C1)c1ccccc1 [ZINC001376084945] | 13.5 nM | 9.7%
10 | CC(C)CCO[C@@H]1CCN(C[C@H]2CC3(CCCCC3)CO2)C1 [ZINC001196519317] | 2.4 nM | 1.2%
11 | Cc1cc(C)c2cc(CN3CCC[C@H](N4CCCC4)CC3)[nH]c2c1 [ZINC000481989921] | 21.6 nM | 11.7%
12 | Cc1ccc(CC2CN(CC3(O)CCSCC3)C2)cc1 [ZINC000656714762] | 67.8 nM | 9.3%
13 | CC[C@@H](CO)N1CCC(CCc2ccc(F)cc2F)CC1 [ZINC001460312963] | 5.2 nM | 8%
14 | Fc1ccccc1[C@H]1CCN(CC#Cc2cccc(Cl)c2)C1 [ZINC001170548029] | 22.6 nM | 8.4%
15 | Cc1cccc(C)c1OC[C@H](O)CN1CC[C@@H](CC2CC2)C1 [ZINC000559413424] | 10.5 nM | 11.9%
16 | C1CCC([C@@H]2CCN(CCC3CCOCC3)C2)CC1 [ZINC000661577595] | 1.76 nM | 6.4%
17 | CC(C)(C)[C@@H]1CCN(C[C@@H](O)COCc2ccccc2F)C1 [ZINC000409447221] | 8.85 nM | 9.7%
18 | Fc1c(CN2CCN(C[C@@H]3CCCO3)CC2)ccc(Br)c1Cl [ZINC001237901728] | 27 nM | 4.5%
19 | CC1CC(CN2CC(N3CCN(C(=O)[C@H](C)C4CCCC4)CC3)C2)C1 (stereo partly drawn) [ZINC000941634458] | 20.3 nM | 12.7%
20 | C[C@@H](C(=O)N(C)Cc1cccc(F)c1)N1CC=C(c2c[nH]c3ncccc23)CC1 [ZINC000533478938] | 34.5 nM | 2.7%
21 | O=C([C@H]1CCOC1)N1CCOC2(C1)CN(C(=O)[C@@]1(F)CCOC1)C2 [ZINC000965338365] | – | 99.1%
22 | C[C@H](CCN1C(=O)c2ccccc2C1=O)NC[C@@H](O)c1c(F)cccc1F [ZINC000769519341] | – | 91.7%

Row | Structure (SMILES) | Ki [1] | remaining activity at 1 µM [2]
23 | O=C(NC[C@@H]1CN2CCC[C@@H]2CO1)C(=O)N[C@@H]1CC[C@H]2CCC[C@@H]2C1 [ZINC000804054066] | – | 90%
24 | CC[C@H]1CN(C(=O)C(=O)NCCCN2CCNCC2)CCS1 [ZINC000419873354] | – | 95.7%
25 | CC(=O)NCCN1CCC(NC(=O)c2c(Cl)n[nH]c2C)CC1 [ZINC001055479120] | – | 98.5%
26 | Cn1nc(C(=O)N[C@@H]2CCN(C(=O)Cc3cscn3)C2)ccc1=O [ZINC000942457739] | – | 89.4%
27 | C[C@H](Cn1ncc2ccccc2c1=O)N[C@H]1CC[C@H](Cc2ccccc2)C1 [ZINC000188287346] | – | 0.9%
28 | O=C(CCn1cccn1)NCCN1CCN(CCn2cccn2)CC1 [ZINC001369886058] | – | 111%
29 | C=C(C)CN/C(N)=N/[C@H]1C[C@H](c2cccc(F)c2)C1 [ZINC000262856881] | – | 6.4%
30 | CC1CCC(CNC(=O)C(=O)NC2CCN([C@@H]3CCC[C@@H]3O)CC2)CC1 (stereo partly drawn) [ZINC000564110976] | – | 78.2%
31 | C[C@H](N)[C@@H]1CCCCN1C(=O)NCc1cn2ccccc2n1 [ZINC000416873685] | – | 127%
32 | O[C@@H](CN1CC[C@@H](CSc2ccccc2)C1)c1c(F)cccc1F [ZINC000743860012] | – | 23.7%
33 | Cn1nccc1[C@@H]1CCC[C@@H](N[C@H]2CC3CCC2CC3)C1 [ZINC000550829396] | – | 19.6%
34 | CS[C@H](CO)[C@@H](C)NC(=O)N[C@@H]1CCN(C2CCN(C)CC2)C1 [ZINC000377772869] | – | 100%
35 | O=C1CCCCN1[C@@H]1CCCN(Cc2cc(-c3ccccc3)no2)C1 [ZINC000370893072] | – | 82.1%
36 | CC(C)(C(=O)N[C@@H]1CCCc2cc(N)ccc21)[C@H](N)c1ccccc1 [ZINC000417806012] | – | 96.2%
37 | CCN(C(=O)c1ccnc(C2CC2)n1)[C@H]1CCN(CC2CCC2)C1 [ZINC001033973784] | – | 43.3%
38 | CN(C)Cc1ccc(-c2cscc2CCO)cc1F [ZINC000665143541] | – | 108%
39 | N#Cc1ccc(N2CCN(C[C@H](O)CC3CCCC3)CC2)c(F)c1 [ZINC000352856249] | – | 43%
40 | COc1cccc2ncnc(N3CCN(CC4CCOCC4)CC3)c12 [ZINC000543048256] | – | 109%
41 | Cc1cc(NC(=O)C(=O)N2CC[C@@H](NC(=O)c3cncn3C)C2)no1 [ZINC000941361883] | – | 111%
42 | Cc1ccnc(CN[C@@H](C)CCNC(=O)c2ccn(C(C)C)c2C)n1 [ZINC001381212829] | – | 71.1%
43 | COc1ccc(-c2ccccc2)cc1CNCCC1(O)CCOCC1 [ZINC000285662957] | – | 17.5%
44 | C[C@H](N[C@@H]1CCCc2c1[nH]c1ccccc21)[C@H]1CCCOC1 [ZINC000389015736] | – | 54.1%

Row | Structure (SMILES) | Ki [1] | remaining activity at 1 µM [2]
45 | CC[C@H](NC(=O)C(=O)N(CC)CCCN1CCCC1)[C@@H]1CCCO1 [ZINC000345970626] | – | 71.7%
46 | CC(C)Sc1ccc([N+](=O)[O-])cc1C(=O)N(C)C[C@H]1CCCN1C [ZINC000421710406] | – | 81.8%
47 | C[C@H]1CCN(CC#Cc2cccc(Cl)c2)[C@H]1CO [ZINC000248917461] | – | 103%
48 | CN(C/C=C\c1ccc(F)c(F)c1)[C@@H]1COC[C@@H]1O [ZINC000348635286] | – | 105%
49 | CN1CCC(C(=O)N2CCC[C@@H](c3nc4ccc(F)cc4o3)C2)CC1 [ZINC000370933962] | – | 98.9%
50 | C[C@H]1CCCN1CC(=O)N(C)[C@H]1CCN(C(=O)C2CCOCC2)C1 [ZINC000936344871] | – | 82.7%
51 | O[C@H](COC(c1ccccc1)c1ccccc1)CN1CC[C@@H]2CCC[C@H]21 [ZINC000426471156] | – | 36.3%
52 | O[C@@H](CN1CCN(c2ccc(-c3nn[nH]n3)cc2F)CC1)C1CC1 [ZINC000738383044] | – | 118%
53 | CN(C)S(=O)(=O)N(C)CC(=O)N[C@@H]1C[C@H](NCCO)C12CCC2 [ZINC001202928172] | – | 117%
54 | CC(C)Cc1ccc(C(=O)N2CCN([C@@H]3CCC[C@@H]3O)CC2)cc1 [ZINC000592403811] | – | 153%
55 | COc1ccc2ccccc2c1-c1cc(CN2CCN(C[C@@H](C)O)C[C@H]2C)on1 [ZINC000192810020] | – | 89%
56 | CCN(C(=O)c1cnccn1)[C@@H]1CCN(CC2CCCCCC2)C1 [ZINC001033739722] | – | 24.6%
57 | Cc1cnc(CN2CC[C@@H](CCNC(=O)c3cncs3)C2)s1 [ZINC001437918206] | – | 103%
58 | Cc1ccncc1N1CCN(C[C@H](O)CN2C[C@@H](C)O[C@H](C)C2)CC1 [ZINC000340106708] | – | 50%
59 | CN(C(=O)CCn1cnc2c1c(=O)n(C)c(=O)n2C)c1cn[nH]c1 [ZINC000748395040] | – | 108%
60 | C[C@H]1CN(CCN(C)C(=O)C(=O)NC2CCN(C)CC2)C[C@H](C)O1 [ZINC000339640280] | – | 106%
61 | Cc1cc(C(C)(C)C)ccc1OC[C@@H](O)CN1CC[C@]2(CCOC2)C1 [ZINC000153451054] | – | 17.2%
62 | CC(C)(CN1C(=O)N2CCC[C@@H]3C[C@@]32C1=O)N1CCc2ccccc2C1 [ZINC000924470947] | – | 45.5%
63 | CC[C@@]1(C)Oc2ccc(NC(=O)C(=O)NC[C@@H]3CCN(C)C3)cc2O1 [ZINC000276781830] | – | 97.6%
64 | Cc1cc([N+](=O)[O-])cc(C)c1S(=O)(=O)NC[C@H]1CCN(C)C1 [ZINC000416493836] | – | 72.3%
